The test system of this assay is nude mice, LOX melanoma ip, survival T/C. Put plainly: NCI In Vivo Anticancer Drug Screen. Data for tumor model Human Amelanotic Melanoma (LOX) (intraperitoneal) in NU/NU BALB/C (nude) mice. The following applies: endpoint: median survival time, higher = longer survival. How it is done:
The antitumor activity of compounds was measured in mice bearing transplantable tumors. Survival or tumor size were measured and the results are expressed as the measurement made in the treated group (T) divided by the measurement made in the vehicle treated control group (C). The tumor model used in this assay is Human Amelanotic Melanoma (LOX) (intraperitoneal) in NU/NU BALB/C (nude) mice

[1] abbreviates: dose: 25.0 mg/kg/injection, schedule: Q04DX003 (ip), vehicle: Klucel (hydroxypropylcellulose) (HPC).
[2] abbreviates: dose: 50.0 mg/kg/injection, schedule: Q04DX003 (ip), vehicle: Klucel (hydroxypropylcellulose) (HPC).
The mark [3] stands for this setting: dose: 100.0 mg/kg/injection, schedule: Q04DX003 (ip), vehicle: Klucel (hydroxypropylcellulose) (HPC).
Setting [4] is: dose: 200.0 mg/kg/injection, schedule: Q04DX003 (ip), vehicle: Klucel (hydroxypropylcellulose) (HPC).
[5] abbreviates: dose: 75.0 mg/kg/injection, schedule: Q04DX003 (ip), vehicle: Klucel (hydroxypropylcellulose) (HPC).
The mark [6] stands for this setting: dose: 150.0 mg/kg/injection, schedule: Q04DX003 (ip), vehicle: Klucel (hydroxypropylcellulose) (HPC).
Where [7] appears, read: dose: 75.0 mg/kg/injection, schedule: Q04DX003 (ip), vehicle: saline with Tween-80.
The mark [8] stands for this setting: dose: 150.0 mg/kg/injection, schedule: Q04DX003 (ip), vehicle: saline with Tween-80.
Setting [9] is: dose: 300.0 mg/kg/injection, schedule: Q04DX003 (ip), vehicle: saline with Tween-80.

Each structure is given as a SMILES string. Several values for one entry are separate records, joined by “and”; a condition that tells them apart may be missing. Identical values can stand only once. Inconclusive results and toxic doses are left out.

`CO[C@@H]1C2=CC=CC=C[C@H]2n2c(=O)n(C)c(=O)n21`: the T/C was 104 % of control (dose: 37.5 mg/kg/injection, schedule: Q04DX003 (ip), vehicle: other); 105 % of control (dose: 75.0 mg/kg/injection, schedule: Q04DX003 (ip), vehicle: other); 102 % of control (dose: 150.0 mg/kg/injection, schedule: Q04DX003 (ip), vehicle: other).

As to `Cc1noc2nc(-c3ccccc3)cc(N3CCN(C)CC3)c12`, the T/C was 97 % of control (dose: 25.0 mg/kg/injection, schedule: Q04DX003 (ip), vehicle: other); 97 % of control (dose: 54.0 mg/kg/injection, schedule: Q04DX003 (ip), vehicle: other); 97 % of control (dose: 100.0 mg/kg/injection, schedule: Q04DX003 (ip), vehicle: other); 93 % of control (dose: 200.0 mg/kg/injection, schedule: Q04DX003 (ip), vehicle: other); 98 % of control (dose: 400.0 mg/kg/injection, schedule: Q04DX003 (ip), vehicle: other).

As for `CC(C)(C)NC(C1=CC(C)(C)c2ccccc2C1=O)c1ccccc1` (stereo not drawn), the T/C by setting is: under setting [1], 107 % of control; under setting [2], 113 % of control; under setting [3], 110 % of control; under setting [4], 118 % of control.

Turning to `O=NN(CCCl)C(=O)NCCCl`, the T/C reads like this: (dose: 1.88 mg/kg/injection, schedule: Q01DX005 (ip), vehicle: saline + alcohol) 122 % of control; (dose: 2.5 mg/kg/injection, schedule: Q01DX015 (ip), vehicle: saline + alcohol) 185 % of control; (dose: 3.75 mg/kg/injection, schedule: Q01DX005 (ip), vehicle: saline + alcohol) 163 % of control; (dose: 5.0 mg/kg/injection, schedule: Q01DX001 (ip), vehicle: saline + alcohol) 117 % of control; (dose: 5.0 mg/kg/injection, schedule: Q01DX015 (ip), vehicle: saline + alcohol) 193 % of control; (dose: 7.5 mg/kg/injection, schedule: Q01DX005 (ip), vehicle: saline + alcohol) 218 % of control. Also, the T/C reads like this: (dose: 10.0 mg/kg/injection, schedule: Q04DX003 (ip), vehicle: saline + alcohol) 185 % of control; (dose: 12.0 mg/kg/injection, schedule: Q04DX003 (ip), vehicle: saline + alcohol) 118 % of control; (dose: 12.0 mg/kg/injection, schedule: Q04DX003 (iv), vehicle: saline + alcohol) 220 % of control; (dose: 15.0 mg/kg/injection, schedule: Q01DX005 (ip), vehicle: saline + alcohol) 191 % of control; (dose: 18.0 mg/kg/injection, schedule: Q04DX003 (ip), vehicle: saline + alcohol) 116 % of control; (dose: 18.0 mg/kg/injection, schedule: Q04DX003 (iv), vehicle: saline + alcohol) 331 % of control. For the same molecule, the T/C (dose: 20.0 mg/kg/injection, schedule: Q01DX001 (ip), vehicle: saline + alcohol) was 177 % of control; the T/C (dose: 20.0 mg/kg/injection, schedule: Q04DX003 (ip), vehicle: saline + alcohol) is 175 % of control; the T/C (dose: 27.0 mg/kg/injection, schedule: Q04DX003 (ip), vehicle: saline + alcohol) is 116 % of control; the T/C (dose: 27.0 mg/kg/injection, schedule: Q04DX003 (iv), vehicle: saline + alcohol) was 331 % of control; the T/C (dose: 40.0 mg/kg/injection, schedule: Q01DX001 (ip), vehicle: saline + alcohol) was 171 % of control; the T/C (dose: 40.0 mg/kg/injection, schedule: Q04DX003 (ip), vehicle: saline + alcohol) was 218 % of control. Further, for the setting “dose: 80.0 mg/kg/injection, schedule: Q01DX001 (ip), vehicle: saline + alcohol”, the T/C was 196 % of control.

Turning to `O=C1c2ccccc2C(=O)c2c1cn1c2Cc2ccccc2C1`, the T/C reads like this: (dose: 6.25 mg/kg/injection, schedule: Q04DX003 (ip), vehicle: Klucel (hydroxypropylcellulose) (HPC)) 91 % of control; under setting [1], 93 % of control; under setting [2], 109 % of control and 95 % of control; under setting [3], 90 % of control; under setting [4], 91 % of control; (dose: 400.0 mg/kg/injection, schedule: Q04DX003 (ip), vehicle: Klucel (hydroxypropylcellulose) (HPC)) 95 % of control.

`O=NN(CCCl)C(=O)Oc1ccc(OC(=O)N(CCCl)N=O)cc1`: the T/C is 118 % of control (dose: 20.0 mg/kg/injection, schedule: Q04DX003 (ip), vehicle: Klucel (hydroxypropylcellulose) (HPC)) and 94 % of control (dose: 40.0 mg/kg/injection, schedule: Q04DX003 (ip), vehicle: Klucel (hydroxypropylcellulose) (HPC)).

Regarding `CN=C(NC#N)NCCSCc1nc[nH]c1C`, the T/C by setting is: under setting [5], 98 % of control; under setting [6], 98 % of control; (dose: 300.0 mg/kg/injection, schedule: Q04DX003 (ip), vehicle: Klucel (hydroxypropylcellulose) (HPC)) 101 % of control.

Turning to `O=S(=O)(c1cccc(N=C=S)c1)c1cccc(N=C=S)c1`, the T/C is 91 % of control (dose: 15.0 mg/kg/injection, schedule: Q04DX003 (ip), vehicle: Klucel (hydroxypropylcellulose) (HPC)); 95 % of control (dose: 30.0 mg/kg/injection, schedule: Q04DX003 (ip), vehicle: Klucel (hydroxypropylcellulose) (HPC)); 107 % of control (dose: 60.0 mg/kg/injection, schedule: Q04DX003 (ip), vehicle: Klucel (hydroxypropylcellulose) (HPC)); 109 % of control (dose: 120.0 mg/kg/injection, schedule: Q04DX003 (ip), vehicle: Klucel (hydroxypropylcellulose) (HPC)).

Turning to `Nc1ncc(C2OC(CO)C(O)C2O)c(=O)[nH]1` (stereo not drawn), the T/C (dose: 62.5 mg/kg/injection, schedule: Q04DX003 (ip), vehicle: saline) is 112 % of control; the T/C (dose: 125.0 mg/kg/injection, schedule: Q04DX003 (ip), vehicle: saline) was 109 % of control; the T/C (dose: 250.0 mg/kg/injection, schedule: Q04DX003 (ip), vehicle: saline) is 100 % of control.

With `COc1ccccc1/C=C/C(=O)c1ccccc(=O)c1O`, the T/C (dose: 9.38 mg/kg/injection, schedule: Q04DX003 (ip), vehicle: Klucel (hydroxypropylcellulose) (HPC)) is 98 % of control; the T/C (dose: 18.75 mg/kg/injection, schedule: Q04DX003 (ip), vehicle: Klucel (hydroxypropylcellulose) (HPC)) is 89 % of control; the T/C (dose: 37.5 mg/kg/injection, schedule: Q04DX003 (ip), vehicle: Klucel (hydroxypropylcellulose) (HPC)) was 98 % of control; the T/C under setting [5] is 110 % of control; the T/C under setting [6] is 103 % of control.

For `O=C1CNC(=O)N1CN1CCOCC1`, the T/C is, setting by setting: under setting [6], 177 % of control; (dose: 600.0 mg/kg/injection, schedule: Q04DX003 (ip), vehicle: Klucel (hydroxypropylcellulose) (HPC)) 152 % of control.

For the molecule `CCOC(=O)C1=C(C)O/C(=C/c2cccc(Cl)c2)C1=O`, the T/C was 200 % of control (dose: 37.5 mg/kg/injection, schedule: Q04DX003 (ip), vehicle: saline with Tween-80); 194 % of control under setting [7]; 152 % of control under setting [8]; 184 % of control under setting [9].

With `COc1ccc2[nH]c3ccc4cc[n+](CCN5CCC(C6CCN(CC[n+]7ccc8ccc9[nH]c%10ccc(OC)cc%10c9c8c7)CC6)CC5)cc4c3c2c1`, the T/C is, setting by setting: (dose: 4.0 mg/kg/injection, schedule: Q04DX003 (ip), vehicle: water) 153 % of control; (dose: 13.7 mg/kg/injection, schedule: Q04DX003 (ip), vehicle: water) 156 % of control; (dose: 16.0 mg/kg/injection, schedule: Q04DX003 (ip), vehicle: water) 176 % of control; (dose: 22.8 mg/kg/injection, schedule: Q04DX003 (ip), vehicle: water) 176 % of control; (dose: 23.04 mg/kg/injection, schedule: Q04DX003 (ip), vehicle: water) 203 % of control; (dose: 32.0 mg/kg/injection, schedule: Q04DX003 (ip), vehicle: water) 187 % of control. Also, the T/C runs as follows: (dose: 38.0 mg/kg/injection, schedule: Q04DX003 (ip), vehicle: water) 207 % of control; (dose: 38.4 mg/kg/injection, schedule: Q04DX003 (ip), vehicle: water) 223 % of control; (dose: 64.0 mg/kg/injection, schedule: Q04DX003 (ip), vehicle: water) 192 % of control.

As to `CN(C)/N=N/c1nc[nH]c1C(N)=O`, the T/C under setting [3] was 107 % of control.

As to `CC1C(c2ccccc2)OC(N2CCOCC2)C(C)(C)CN1C` (stereo not drawn), the T/C reads like this: under setting [7], 105 % of control; under setting [8], 93 % of control; under setting [9], 90 % of control.

Source of the values: PubChem BioAssay AID280 (DTP/NCI, 2004).
